Test results published in patent US20070191476A1, “Antioxidant Components for Reduction of Nucleic Acid Damage in Companion Animals” (Mars, Incorporated, priority 2001, published 2007).

Assays:
canine leukocytes = system: canine leukocytes
Experimental: (§1) All cats and dogs were housed at the Waltham Centre for Pet Nutrition, in conditions resembling those of pet cats and dogs, and were fed commercially available, complete diets throughout the study period. Fasted blood samples (5 ml) were drawn from the jugular vein of 12 healthy adult cats (7.2±4.8 years) and 12 healthy adult dogs (4.5±2.3 years) into lithium herparin vials and diluted 1:1 in PBS. Leukocytes were isolated over Histopaque 1083 gradients (Sigma, UK) by centrifugation at 1000 g for 40 minutes. Leukocytes were washed twice in 10 mls PBS and centrifuged at 700 g for 10 minutes before counting and storing at 1×10^6 cells/ml in 90% fetal calf serum (Sigma) and 10% dimethyl sulphoxide (Sigma) at −80° C. until required.
(§2) DNA damage was induced in vitro by exposing the leukocytes to a range of H2O2 concentrations (0-250 μM diluted in PBSa) to determine the optimal level of H2O2 required to induce a significant increase in DNA damage above background endogenous DNA damage levels. Leukocytes were thawed rapidly in a 37° C. water bath, washed twice in PBSa, centrifuged at 700 g for 15 minutes and resuspended in PBSa at […]. Cells were re-suspended in 0 μM, 10 μM, 50 μM, 100 μM and 250 μM H2O2 in PBSa and incubated on ice for 5 minutes. Treated leukocytes were centrifuged at 700 g for 15 minutes at 4° C. ready for slide preparation.
(§3) Two layers of agarose were prepared. For the first layer, 85 μl 1% (w/v) high-melting point (HMP) agarose (Sigma) prepared at 95° C. in PBSa was pipetted onto fully frosted microscope slides, covered with an 18×18 mm coverslip and allowed to set at 4° C. for 10 minutes. Untreated and hydrogen peroxide-treated leukocytes were washed twice in PBS, centrifuged at 700 g for 15 minutes and resuspended at 2×10^5 in 85 μl 1% (w/v) low melting point (LMP) agarose (Sigma). The cell suspension was then pipetted over the set HMP agarose layer, covered with an 18×18 mm coverslip and allowed to set at 4° C. for 10 minutes. After the coverslips were removed, the slides were immersed in freshly prepared cold lysis solution.

feline leukocytes = system: feline leukocytes
Experimental: as §1, §2, §3

[1] = 10-250 μM H2O2, 5 minutes, p<0.001

Structure (SMILES): OO [H2O2, hydrogen peroxide]
- DNA damage in relation to all other concentrations of H2O2 (canine leukocytes; 250 μM H2O2, FIG. 2): significant increases in DNA damage
- DNA damage (visual comet score) versus untreated samples (canine leukocytes; [1]): Statistically significant increases in DNA damage
- DNA damage in relation to all other concentrations of H2O2 (feline leukocytes; 250 μM H2O2, FIG. 1): significant increases in DNA damage
- DNA damage (visual comet score) versus untreated samples (feline leukocytes; [1]): Statistically significant increases in DNA damage
